Data from patent US20250275928A1, “NANOPARTICLE-BASED ABUSE-DETERRENT FORMULATIONS AND METHODS OF MAKING AND USING” (Purdue Research Foundation, priority 2021, published 2025).
In brackets after ≈: the same amount, converted by molar mass.

Columns and labels:
[1] = Equilibrium solubility of thebaine in ethanol; type: physicochemical; details: organic solvent or mixture, thermodynamic from solid
Method: Chemical extractability of thebaine, a model opioid drug, as a mixture with a non-gel forming excipient, Avicel pH 102, or selected gel-forming polymers, was tested using absolute ethanol. […] Physical mixtures of thebaine (600 μg) with 150 mg Avicel or Avicel with selected polymers (80 mg XG, 20 mg XG+30 mg HEC, or 20 mg XG+60 mg CS) mg) were extracted in 1 mL of absolute ethanol for 1 h. Free thebaine without any excipients was also tested for comparison.

[2] = Thermal stability of thebaine (TGA, heating); type: physicochemical
[3] = Dissolution in simulated gastric fluid; details: after 12 and 24 h
[4] = Chemical extractability from nanocapsules by household solvents

SMILES: COC1=CC=C2[C@H]3Cc4ccc(OC)c5c4[C@@]2(CCN3C)[C@H]1O5 [thebaine]
- solubility thermodynamic at 24 h ([1]; in 24 h): 10.4 mg/mL (≈ 33.4 mM)
- solubility thermodynamic at 72 h ([1]; in 72 h): 10.5 mg/mL (≈ 33.7 mM)
- drug that withstood heating ([2]; 180° C. for 10 min, drug alone): 86.9%
- temperature at which decomposition began (TGA) ([2]; thermogravimetric analysis): around 200 °C
- stability in SGF [3]: degraded
- solubility in household solvents ([4]; all tested solvents except for 0.9% NaCl and 0.1 M NaOH): soluble
- dissolution in household solvents ([4]; most solvents at equivalent concentrations): dissolves completely
